Results from patent publication US20140030368A1, “COMPOSITION FOR PREVENTING OR TREATING A RESPIRATORY DISEASE CONTAINING A MIXED HERBAL EXTRACT OF CNIDIUM OFFICINALE ROOT AND POLYGONI CUSPIDATI ROOT” (WHANIN PHARMACEUTICAL CO., LTD., priority 2011, published 2014).

Columns and labels:
[1] = system: croton oil-induced ear edema; assay: Croton oil-induced ear edema; assay type: in vivo, mice; details: oral dose 100 mg/kg
Experimental: When croton oil is applied to the skin, an inflammatory reaction occurs to produce redness, a swelling and a blister on the applied surface (Archives of Pharmacal Research, 1993, 16[1], 18-24).
As experimental animals, male ICR mice (weighed 20-23 g; Orientbio, Korea) were divided into groups, each consisting of 10 mice. Each of the test samples and the comparative drug COX-2 inhibitor Celecoxib (100 mg/kg, Pfizer) was orally administered into the mice which have been fasted for one day, and after 1 hour, a solution of 3% croton oil in acetone was applied uniformly to the inner and outer sides of the right ear of each mouse to induce ear edema.

[2] = Test for expectorant activity (phenol red in trachea); assay type: in vivo, mice
Experimental: Using the method of Engler et al. ([…]. Pharmacol. […] Jian-Hua Shang et al, J. Ethnopharmacology, 129, 293-298, 2010), the expectorant activity of the extract of the present invention was measured. […] Orientbio, Korea) were divided into groups, each consisting of 10 mice. […] After 30 minutes, the mice were subjected to cervical dislocation, and blood was discharged from the abdominal aorta, after which the trachea was completely excised. The isolated trachea was cold-stored in 1 ml of physiological saline.

[3] = target: T1, 5-lipoxygenase (Rattus norvegicus, UniProt P12527); assay: 5-Lipoxygenase inhibitory activity (leukotriene production in RBL-1 cells, cysteinyl leukotriene EIA); assay type: cell-based; details: RBL-1, read-out: 5-lipoxygenase inhibition rate(%)
T1 construct: rat basophilic leukemia cells (RBL-1) were stabilized using serum-free RPMI medium; endogenous in cells; host or cells: RBL-1 (rat basophilic leukemia cells)
Experimental: Specifically, rat basophilic leukemia cells (RBL-1) were stabilized using serum-free RPMI medium at 37° C., and each of the extracts and arachidonic acid as a substrate were added thereto and incubated for 15 minutes to produce leukotriene. The amount of the produced leukotriene was measured using a cysteinyl leukotriene EIA kit. As comparative drugs, the 5-lipoxygenase inhibitors zileuton and montelukast were used.

[4] = system: citric acid-induced coughing; assay: Test for antitussive activity (citric acid-induced coughing); assay type: in vivo, guinea pigs; details: Oral dose 50 mg/kg
Experimental: In order to evaluate the antitussive activity of the extract of the present invention (American Journal of Respiratory and Critical Care Medicine, 1998, 158 [1], 42-48), the extract of Example 2 was administered into guinea pigs, and then citric acid was sprayed into the guinea pig to induce coughing, after which the number of coughs was measured. Citric acid is frequently used in studies on the activity of airway sensory nerves, and the inhalation of citric acid causes bronchoconstriction, nasal stimulation, coughing, bronchial hypersensitivity and the like.
Specifically, as experimental animals, Hartely male guinea pigs (weighed 350-400 g; Orientbio, Korea) were divided into groups, each consisting of 10-12 animals. Each of the extract of Example 2 and 50 mg/kg of the comparative drug theobromine (Sigma) was administered orally into the grouped mice which have been fasted for one day. After 1 hour, 0.3M citric acid as a cough inducer was sprayed into the animals to induce coughing.

[5] = system: extracted bronchi of guinea pigs; assay: Test for bronchoconstriction (in vitro), ovalbumin-induced constriction of isolated sensitized bronchi; details: Cavia porcellus, read-out: Bronchoconstriction inhibition rate(%)
Experimental: The comparative drug rolipram was used at a concentration of 20 μM, and each of the extracts was used at a concentration of 0.3 mg/ml.
Specifically, Hartely male guinea pigs (400-500 g, BGI, Korea) were sensitized by intravenous injection with 2 ml/kg of anti-ovalbumin anti-serum. At 48 hours after sensitization, the guinea pigs were sacrificed and the bronchi were extracted therefrom. Then, other tissues attached to the bronchi were removed using a tyrode solution, and each of the bronchi was cut in a ring shape containing 2-3 cartilages. Then, the cartilage portion of the ring was excised while the bronchial muscle was preserved. Then, a string was connected to both sides of each bronchus which was then suspended in an organ bath and stabilized for a predetermined time. Then, 10 μg/ml of carbachol was added to induce the maximum constriction of the bronchi which were then washed with a tyrode solution and stabilized. Next, 5 μM of indomethacin was added to each bronchus, and after 1 minute, each of the extracts was added to each bronchi, and after 5 minutes, 20 μg/ml of ovalbumin was added to induce bronchoconstriction. […] The relaxation of the bronchi was measured using a physiological activity meter connected (powerlab 8/30, AD Instrument) with a force transducer (WPI).

[6] = system: leukocytes in the bronchoalveolar lavage; assay: Test for inhibition of bronchial inflammation, leukocytes in bronchoalveolar lavage of ovalbumin-sensitized mice; assay type: in vivo; details: oral 10 mg/kg b.i.d.
Experimental: Specifically, BALB/c female mice (6.5 weeks old, SLC, Japan) were sensitized by intraperitoneal administration of 0.2 ml of a 1:1 mixture of 10 μg of ovalbumin (OVA, Sigma) and 4 mg of aluminum hydroxide (Alum, Pierce) at days 0, 7 and 14. At 8 days and 10 days after the final sensitization, aerosol prepared from 1.0% ovalbumin using high-pressure compressed air was sprayed into the mice for 50 minutes to induce airway inflammation. As a comparative drug, 10 mg/kg of rolipram (Sigma) was used. The comparative drug and the test materials were orally administered twice (morning and evening) a day during a period ranging from 21 days to 23 days after the first sensitization. At 24 hours after the final induction of inflammation, the bronchoalveoli were laved with 1.5 ml of phosphate buffered saline (pH 7.2) to collect a bronchoalveolar lavage. The number of leukocytes in the lavage was counted using a hematology analyzer (Drew Scientific Inc., HEMAVET HV950FS, M-950HV).

T1 sequence (P12527 whole entry): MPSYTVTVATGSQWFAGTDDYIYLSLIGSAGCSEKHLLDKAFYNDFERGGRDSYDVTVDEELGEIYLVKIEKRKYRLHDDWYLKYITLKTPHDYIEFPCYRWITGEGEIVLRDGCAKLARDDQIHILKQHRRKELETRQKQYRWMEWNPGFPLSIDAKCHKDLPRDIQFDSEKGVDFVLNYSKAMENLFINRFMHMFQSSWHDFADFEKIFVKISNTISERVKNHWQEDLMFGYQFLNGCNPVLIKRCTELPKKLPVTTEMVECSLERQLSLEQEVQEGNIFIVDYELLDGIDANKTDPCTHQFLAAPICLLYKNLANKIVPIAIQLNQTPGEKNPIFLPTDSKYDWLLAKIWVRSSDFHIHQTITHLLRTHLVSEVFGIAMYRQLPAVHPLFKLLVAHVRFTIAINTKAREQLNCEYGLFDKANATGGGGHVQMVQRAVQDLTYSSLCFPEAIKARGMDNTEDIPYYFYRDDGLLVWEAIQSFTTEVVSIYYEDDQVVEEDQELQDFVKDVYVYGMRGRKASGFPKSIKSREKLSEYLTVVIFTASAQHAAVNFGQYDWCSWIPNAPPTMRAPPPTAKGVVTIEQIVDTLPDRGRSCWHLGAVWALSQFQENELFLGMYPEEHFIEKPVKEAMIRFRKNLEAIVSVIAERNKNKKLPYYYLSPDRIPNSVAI

Cc1ccc(-c2cc(C(F)(F)F)nn2-c2ccc(S(N)(=O)=O)cc2)cc1 [Celecoxib]
Ear edema inhibition rate (%) [1]: 17%

Nc1c(Br)cc(Br)cc1CN[C@H]1CC[C@H](O)CC1 [Ambroxol, ambroxol]
Expectorant activity (%) ([2]; Oral dose 250 mg/kg): 27%

CC(c1cc2ccccc2s1)N(O)C(N)=O (stereo not shown) [Zileuton, zileuton]
inhibition at 1 µM [3]: 63%

Cn1cnc2c1c(=O)[nH]c(=O)n2C [theobromine]
Cough inhibition rate (%) [4]: 36%

[Cl-].[Cl-].[Mg+2] [Magnesium chloride]
Expectorant activity (%) ([2]; Oral dose 500 mg/kg): 33%

COc1ccc(C2CNC(=O)C2)cc1OC1CCCC1 (stereo not shown) [rolipram]
inhibition at 20 µM [5]: 62% | Inhibition rate (%) of pulmonary bronchial inflammation [6]: 22%
